O=C(NC(=O)c1c(F)cccc1F)Nc1cc(Cl)c(F)c(Cl)c1F
solubility (mole fraction)
Conditions	278.15 K	283.15 K	288.15 K	293.15 K	298.15 K	303.15 K	308.15 K	313.15 K	318.15 K	323.15 K
in DMF	0.174	0.186	0.2	0.213	0.228	0.243	0.26	0.275	0.292	0.308
in ethanol	0.0485	0.0515	0.0549	0.0582	0.0614	0.0647	0.0676	0.0708	0.0744	0.0782
in methanol	0.0672	0.0729	0.0792	0.0854	0.0925	0.1	0.108	0.116	0.124	0.133
in propylene glycol	0.0199	0.0212	0.0227	0.0241	0.0255	0.0269	0.0282	0.0296	0.0311	0.0327
in water	6.82e-06	7.49e-06	8.19e-06	8.88e-06	9.72e-06	1.07e-05	1.17e-05	1.26e-05	1.36e-05	1.47e-05

Reference: BigSolDB 2.1
